Columns and labels:
Assay type in all cases: in vivo
[1] = system: southern armyworm (Spodopetra eridania Cramer); assay: Mite/insect screen: southern armyworm on sprayed squash leaves; conditions: Spodoptera eridania, percent mortality, leaf spray, read-out: SAW RESULTS; for mortality at 200 ppm: rate 200 PPM; for mortality at 400 ppm: rate 400 PPM
[2] = system: Southern corn rootworm (Diabrotica undecimpuctata howardi Barber); assay: Mite/insect screen: corn rootworm, treated soil; conditions: percent mortality, soil treatment; for mortality at 12 ppm: CRW rate 12.00 PPM; for mortality at 24 ppm: CRW rate 24.00 PPM
[3] = system: melon aphids (Aphis gossypii Glover); assay: Mite/insect screen: melon aphids on sprayed squash cotyledons; conditions: percent mortality, leaf spray, read-out: MA RESULTS; for mortality at 200 ppm: rate 200 PPM; for mortality at 400 ppm: rate 400 PPM
[4] = system: Twospotted spider mites (Tetranychus urticae Koch); assay: Mite/insect screen: twospotted spider mites on sprayed squash cotyledons; conditions: percent mortality, leaf spray, read-out: SM RESULTS; for mortality at 200 ppm: rate 200 PPM; for mortality at 400 ppm: rate 400 PPM
[5] = system: Pseudoperonospora cubensis; assay: Greenhouse Test 1, foliar spray fungicide screen: downy mildew; conditions: disease control rating, host squash, 400 ppm (+++ at 100 ppm)
[6] = system: Puccinia recondita tritici; assay: Greenhouse Test 1, foliar spray fungicide screen: leaf rust; conditions: disease control rating, host wheat, 400 ppm (+++ at 100 ppm)
Pyricularia oryzae = conditions: disease control rating; foliar spray; host rice; 400 ppm (+++ at 100 ppm)
Botrytis cinerea = assay: Greenhouse Test 1, foliar spray fungicide screen: gray mold; conditions: disease control rating, host grape berries, 400 ppm (+++ at 100 ppm)
[7] = system: Erysiphe graminis tritici; assay: Greenhouse Test 1, foliar spray fungicide screen: powdery mildew; conditions: disease control rating, host wheat, 400 ppm (+++ at 100 ppm)
Septoria tritici = assay: Greenhouse Test 1, foliar spray fungicide screen: leaf blotch; conditions: disease control rating, host wheat, 400 ppm (+++ at 100 ppm)
Cercospora beticola = assay: Greenhouse Test 1, foliar spray fungicide screen: leaf spot; conditions: disease control rating, host sugar beet, 400 ppm (+++ at 100 ppm)
Venturia inaequalis = assay: Greenhouse Test 1, foliar spray fungicide screen: apple scab; conditions: disease control rating, host apple seedling, 400 ppm (+++ at 100 ppm)

SMILES | mortality at 200 ppm [1] | mortality at 400 ppm [1] | mortality at 12 ppm [2] | mortality at 24 ppm [2] | mortality at 200 ppm [3] | mortality at 400 ppm [3] | mortality at 200 ppm [4] | mortality at 400 ppm [4] | DOWN MDEW [5] | LEAF RUST [6] | RICE BLAST (Pyricularia oryzae) | GRAY MOLD (Botrytis cinerea) | POWD MDEW [7] | LEAF BLOT (Septoria tritici) | LEAF SPOT (Cercospora beticola) | APPL SCAB (Venturia inaequalis)
Fc1ccc(Oc2ccnc3cnccc23)cc1 [Example 2, 4-(4-fluorophenoxy)-1,7-naphthyridine] | 0% | 0% | 0% | 0% | 30% | 0% | 40% | 0% | + (+ = 20-89% control at 400 ppm) | + (+ = 20-89% control at 400 ppm) | - (- = 0-19% control at 400 ppm) | - (- = 0-19% control at 400 ppm) | + (+ = 20-89% control at 400 ppm) | – | – | –
Fc1ccc(Oc2ccnc3cccnc23)cc1 [Example 4, 4-(4-fluorophenoxy)-1,5-naphthyridine] | – | 0% | – | 0% | – | 80% | – | 80% | ++ (++ = 90-100% control at 400 ppm) | + (+ = 20-89% control at 400 ppm) | + (+ = 20-89% control at 400 ppm) | - (- = 0-19% control at 400 ppm) | + (+ = 20-89% control at 400 ppm) | – | – | –
c1ccc(CCNc2ccnc3cccnc23)cc1 [Example 10, N-(2-phenylethyl)-1,5-naphthyridin-4-amine] | 0% | – | 0% | – | 0% | – | 0% | – | +++ (+++ = 90-100% control at 100 ppm) | + (+ = 20-89% control at 400 ppm) | + (+ = 20-89% control at 400 ppm) | - (- = 0-19% control at 400 ppm) | + (+ = 20-89% control at 400 ppm) | - (- = 0-19% control at 400 ppm) | + (+ = 20-89% control at 400 ppm) | + (+ = 20-89% control at 400 ppm)
CC(C)(C)c1ccc(CCNc2ccnc3cccnc23)cc1 [Example 7, N-[2-[4-(t-butyl)phenyl]ethyl]-1,5-naphthyridin-4-amine] | 0% | 0% | 0% | 0% | 90% | 100% | 90% | 100% | +++ (+++ = 90-100% control at 100 ppm) | +++ (+++ = 90-100% control at 100 ppm) | ++ (++ = 90-100% control at 400 ppm) | - (- = 0-19% control at 400 ppm) | ++ (++ = 90-100% control at 400 ppm) | – | – | –
Fc1ccc(Oc2ccnc3ccncc23)cc1 [Example 3, 4-(4-fluorophenoxy)-1,6-naphthyridine] | 0% | 0% | 0% | 0% | 0% | 0% | 0% | 0% | - (- = 0-19% control at 400 ppm) | - (- = 0-19% control at 400 ppm) | - (- = 0-19% control at 400 ppm) | - (- = 0-19% control at 400 ppm) | - (- = 0-19% control at 400 ppm) | – | – | –
CCOc1ccc(CCOc2ccnc3cccnc23)cc1 [Example 9, 4-[2-(4-ethoxyphenyl)ethoxy]-1,5-naphthyridine] | 0% | 0% | 0% | 0% | 100% | 100% | 40% | 80% | ++ (++ = 90-100% control at 400 ppm) | +++ (+++ = 90-100% control at 100 ppm) | ++ (++ = 90-100% control at 400 ppm) | - (- = 0-19% control at 400 ppm) | + (+ = 20-89% control at 400 ppm) | – | – | –
CCOc1ccc(CCCOc2ccnc3cccnc23)cc1 [Example 6, 4-[3-(4-ethoxyphenyl)propoxy]-1,5-naphthyridine] | 0% | 0% | 0% | 0% | 0% | 0% | 0% | 0% | - (- = 0-19% control at 400 ppm) | - (- = 0-19% control at 400 ppm) | - (- = 0-19% control at 400 ppm) | - (- = 0-19% control at 400 ppm) | - (- = 0-19% control at 400 ppm) | – | – | –
Fc1ccc(Oc2ccnc3ncccc23)cc1 [Example 1, 4-(4-fluorophenoxy)-1,8-naphthyridine] | 0% | 0% | 0% | 0% | 0% | 0% | 0% | 0% | ++ (++ = 90-100% control at 400 ppm) | ++ (++ = 90-100% control at 400 ppm) | - (- = 0-19% control at 400 ppm) | - (- = 0-19% control at 400 ppm) | + (+ = 20-89% control at 400 ppm) | – | – | –
Clc1ccccc1Oc1ccnc2ncccc12 [Example 8, 4-(2-chlorophenoxy)-1,8-naphthyridine] | 0% | 0% | 0% | 0% | 0% | 0% | 0% | 0% | ++ (++ = 90-100% control at 400 ppm) | + (+ = 20-89% control at 400 ppm) | + (+ = 20-89% control at 400 ppm) | - (- = 0-19% control at 400 ppm) | - (- = 0-19% control at 400 ppm) | – | – | –
CC(C)(C)c1ccc(CCOc2ccnc3cccnc23)cc1 [Example 5, 4-[2-[4-(t-butyl)phenyl]ethoxy]-1,5-naphthyridine] | 0% | 0% | 0% | 0% | 50% | 80% | 100% | 100% | +++ (+++ = 90-100% control at 100 ppm) | ++ (++ = 90-100% control at 400 ppm) | ++ (++ = 90-100% control at 400 ppm) | - (- = 0-19% control at 400 ppm) | + (+ = 20-89% control at 400 ppm) | – | – | –
